Data on two compounds can be found in US20070037194A1, “Allelic variation in the serotonin transporter (SERT) as an indicator of autism” (priority 2005, published 2007).

One assay has as its system SERT Ala56. Type of assay: cell-based, human. The conditions noted are these: homozygous Ala56 cells preincubated for various times at 37° C. with 10 μM 8BrcGMP. As to the method:
(§1) Homozygous Ala56 cells (10^6/tube) were preincubated for various times at 37° C. with 10 μM 8BrcGMP prior to [^3H]5-HT transport assays.
(§2) Functional Analysis of Gly56Ala Activity and Regulation. EBV-transformed lymphocyte cell lines from AGRE or Tufts/Vanderbilt autism families carrying either the Gly56 or 56Ala alleles were obtained from the NIMH Human Genetics Initiative Repository (www.nimhgenetics.org/) at Rutgers University. […] Lymphocytes were pelleted at 1500 rpm, 5 min and washed with KRH assay buffer. A total of 1×10^6 cells in triplicate were pre-warmed (37° C.) in a shaking water bath (10 min) in 12×75 polypropylene tubes in KRH buffer containing 100 μM pargyline and 100 μM ascorbic acid. After a 5-min incubation with [^3H]5-HT (20 nM) at 37° C., uptake assays were terminated by immersion on ice, and uptake in pelleted, 1% SDS-extracted cells quantitated by scintillation spectrometry. Specific 5-HT uptake was determined by subtracting the amount of [^3H]5-HT accumulated in the presence of 10 μM paroxetine (SmithKline Beecham). [^3H]L-glutamate transport assays were conducted as described for [^3H]5-HT except using 100 nM substrate and defining nonspecific uptake with parallel accumulation acquired at 4° C.

For a further assay, the system named is Gly56 SERT. It counts as cell-based, human. The conditions noted are these: coincubation with PKG inhibitor H8 at 10 μM; data not shown. As to the method:
as §1, §2

Turning to `Nc1nc2c(nc(Br)n2[C@@H]2O[C@@H]3COP(=O)(O)O[C@H]3[C@H]2O)c(=O)[nH]1` [8BrcGMP], the “sensitivity of SERT Ala56 [3H]5-HT transport to 8BrcGMP” value in the assay on SERT Ala56 was “lacks sensitivity”.
As for `CNCCNS(=O)(=O)c1cccc2cnccc12` [H8], the “block of 8BrcGMP effects on Gly56 SERT” value in the assay with Gly56 SERT is “completely blocked”.
